Measurements taken from patent publication US12509734B2, “Systems and methods to assess microbiomes and treatments thereof” (priority 2013, dated 2025).

Key:
[1] = tested on: vaginal microbiota (PB-primer target groups); assay: PB-qPCR microbial profiles of vaginal swabs of recurrent BV patients (Example 2); format: in vivo, human
Experimental: Sample processing, DNA extraction, and qPCR. Microbial gDNA was purified from swabs in 1-2 ml saline or lysis solution by a high SDS/alkaline lysis—phenol extraction protocol as described previously in Lambert and resuspended in 200 μL TE (10 mM Tris, pH 8, 1 mM EDTA). The lysed bacterial gDNA is stable for over one month at room temperature in lysis solution buffer (data not shown) and this buffer prevents changes in titer due to possible stability issues with different strains of bacteria in saline. An aliquot of purified DNA was assayed by qPCR with 18 universal and phylogenetic branch-inclusive (PB) primers and PCR conditions as described previously in Lambert. Additional primers, targeting the Enterococcus genus and its cytolysin gene CyILL, are provided in SEQ ID NOs: 92 and 95 (Enterococcus), and 93 and 96 (cytolysin gene). Each PB-primer targets a branch of the phylogenetic tree, from whole phyla to family or genus, and is far more inclusive than species-specific primers. Relative LB composition of the vaginal microbiome was determined by dividing the Lactobacillaceae titer by the sum of all PB-primers and by using the disclosed LB-blocker approach. Briefly, the LB-blocker approach uses the difference between the quantitative cycles (Cq) of two parallel qPCR reactions with universal primers targeting the 16S rRNA gene, when one of the reactions is in the presence of LB spp.-specific blocking oligomers (LB-blockers) that have been chemically modified to prevent extension and that partially overlap the universal primer binding site, effectively rendering the LB DNA “invisible” to the universal PCR, even when LB gDNA is present at great excess compared to non-LB gDNA, as is common in healthy and PT samples. PB-primers amplicons were selectively sequenced to confirm they were correctly targeted and to identify the dominant species. These were “cleaned” enzymatically as described in Lambert, and Sanger sequenced at Functional Biosciences (Madison, WI). Sequences were uploaded to Ribosomal Database Project II using its Pipeline function; species were identified based on phylogenetic trees constructed in Molecular Evolutionary Genetics Analysis (MEGA5) software.
Calculations. Cq values from qPCR reactions were converted to molecules per reaction by comparing sample Cq values to a standard curve from the same run of Cq values derived from dilutions of an amplicon of known target of known concentration. Molecules per reaction were converted to cells per swab, assuming an average of 5 ribosomal genes per cell and proportioned to the ratio of the volume of the sample used in the DNA prep and the amount of sample used in the qPCR reaction. Delta Cq (ΔCq) values of LB-blocked reaction pairs were calculated as Cq (blocked sample)−Cq (unblocked sample). Differences between patient groups were compared using the t test in (GraphPad software).

bacterial vaginosis (BV) [2] = assay: Clinical assessment of BV patients after therapy (Amsel criteria, Nugent score, recurrence); format: in vivo, human
Source text: Patients. Five African American participants were followed at the Vaginitis Clinic at Wayne State University and had been treated for recurrent episodes symptomatic bouts of BV. Patients were enrolled after protocol explanation and written informed consent was obtained. The study was endorsed by the Human Investigational Review Board of Wayne State University. At the time of enrollment, patients were diagnosed with florid symptomatic acute BV, characterized by the presence of at least 3 of the 4 Amsel criteria (homogeneous vaginal discharge, pH elevated above 4.5, clue cells>20%, positive whiff test) and Nugent scores of at least 8.
At this immediate PT visit, patients were given Catch-All Sample Collection Swabs (Epicentre Biotechnologies, Madison, WI) and 15 mL conical tubes for vaginal specimen self-collection. […] Samples from a previously characterized group of recurrent BV patients, sampled before and after treatment, were also evaluated by Lb-qPCR. Reichman et al., Sexually Transmitted Diseases 36: 732-734, 2009.

[3] = tested on: relative LB content of the vaginal microbiome; assay: Lb-qPCR / LbRC: delta Cq of LB-blocked versus unblocked universal qPCR of vaginal samples; format: in vivo, human; conditions: separate group of recurrent BV patients, FIG. 11
Experimental: Sample processing, DNA extraction, and qPCR. Microbial gDNA was purified from swabs in 1-2 ml saline or lysis solution by a high SDS/alkaline lysis—phenol extraction protocol as described previously in Lambert and resuspended in 200 μL TE (10 mM Tris, pH 8, 1 mM EDTA). The lysed bacterial gDNA is stable for over one month at room temperature in lysis solution buffer (data not shown) and this buffer prevents changes in titer due to possible stability issues with different strains of bacteria in saline. An aliquot of purified DNA was assayed by qPCR with 18 universal and phylogenetic branch-inclusive (PB) primers and PCR conditions as described previously in Lambert. Additional primers, targeting the Enterococcus genus and its cytolysin gene CyILL, are provided in SEQ ID NOs: 92 and 95 (Enterococcus), and 93 and 96 (cytolysin gene). Each PB-primer targets a branch of the phylogenetic tree, from whole phyla to family or genus, and is far more inclusive than species-specific primers. Relative LB composition of the vaginal microbiome was determined by dividing the Lactobacillaceae titer by the sum of all PB-primers and by using the disclosed LB-blocker approach. […]
Calculations. […] Delta Cq (ΔCq) values of LB-blocked reaction pairs were calculated as Cq (blocked sample)−Cq (unblocked sample). […]

bacterial vaginosis (BV) [4] = conditions: 121 women with BV successfully treated; cited from earlier work
[5] = P2, 500 mg suppositories, 2 per day for 7 days
[6] = P5, 7 daily 500 mg vaginal suppositories
[7] = separate group of recurrent BV patients

Question: What does the source list for `Cc1ncc([N+](=O)[O-])n1CCO` [metronidazole]?
Answer: Actinobacteridae (G. vaginalis) share after treatment ([1]; P1-post1): 2%; Lactobacillaceae share of post-treatment samples ([1]; P1-post1 and -post2, high dose vaginal): > 97%; Further fold reduction of G. vaginalis ([1]; P1-post2 versus P1-post1): ~100 fold; Actinobacteridae (G. vaginalis) share after treatment ([1]; P2-post1, oral): < 0.5%; Share of 6-8 other targets after treatment ([1]; P2-post1, oral): under 0.1%; Clinical status 10 days later (bacterial vaginosis (BV) [2]; P1, daily suppositories 750 mg): full remission; Day of recurrence of symptomatic BV (bacterial vaginosis (BV) [2]; P1, daily suppositories 750 mg): 94 days; Amsel status after treatment (bacterial vaginosis (BV) [2]; P1, high dose vaginal): Amsel negative; Nugent score after treatment (bacterial vaginosis (BV) [2]; P1, high dose vaginal, after first and second BV episodes): 0; Florid episodes of BV in the two previous years in spite of prophylactic therapy (bacterial vaginosis (BV) [2]; P1, vaginal 500-750 mg twice weekly): 4; Amsel status after treatment (bacterial vaginosis (BV) [2]; P2-post1, oral): Amsel negative; Nugent score after treatment (bacterial vaginosis (BV) [2]; P2-post1, oral): 0; Day symptoms were reported after second treatment (bacterial vaginosis (BV) [2]; [5]): 152 days; Response to second treatment (bacterial vaginosis (BV) [2]; [5]): recovered well; Time to recurrence after second treatment (self-reported) (bacterial vaginosis (BV) [2]; P2, 2x500 mg suppositories daily for 7 days): approximately 117 days PT; Clinical status one week later (bacterial vaginosis (BV) [2]; P2, oral 500 mg bid for 7 days): asymptomatic; Time of symptomatic recurrence after enrollment (bacterial vaginosis (BV) [2]; P2, oral 500 mg bid for 7 days): 35 days; Clinical status 21 days later (bacterial vaginosis (BV) [2]; [6]): asymptomatic in clinical remission; Nugent score 21 days later (bacterial vaginosis (BV) [2]; [6]): 4; Outcome at return within three weeks by Amsel criteria (bacterial vaginosis (BV) [2]; five recurrent BV patients, Nugent scores of 0 except Patient 5): clinical cure; Nugent average after treatment, Post A group (bacterial vaginosis (BV) [2]; [7]): 2.2±4.0; Nugent average after treatment, Post B group (bacterial vaginosis (BV) [2]; [7]): 0.8±1.2; delta Cq score after treatment, Post A group [3]: 4.1±2.2; delta Cq score after treatment, Post B group [3]: 17±6; Women who recurred within one year (bacterial vaginosis (BV) [4]): 58%; Women who returned to abnormal vaginal profiles (bacterial vaginosis (BV) [4]): 69%

Question: For `CCC[C@@H]1C[C@@H](C(=O)N[C@@H]([C@H]2O[C@H](SC)[C@H](O)[C@@H](O)[C@H]2O)[C@H](C)Cl)N(C)C1` [clindamycin], which “Actinobacteridae (G. vaginalis) after treatment, fold lower than P1 or P2” value ([1]; P3-post) is on record?
Answer: 10-100 fold

Question: What about the “Mobiluncus share after treatment” value ([1]; P3-post) of the same compound?
Answer: 0.4%

Question: And the “Share of all other targets after treatment” value ([1]; P3-post)?
Answer: below 0.01%

Question: What about the “Nugent score after treatment” value (bacterial vaginosis (BV) [2]; P3, Nugent 10 before) of the same compound?
Answer: 0
